According to patent US9216171B2, “Methods of preventing ischemic injury using peripheral nociceptive stimulation” (University of Cincinnati, priority 2009, dated 2015):

Columns and labels:
Type in all cases: in vivo
[1] = test system: murine ischemia/reperfusion model of myocardial infarction; assay: Mouse ischemia/reperfusion model: infarct size after remote topical TRP agonist
Method: A previously described mouse model of ischemia and reperfusion (I/R) injury in vivo was used (Ren et al. (2004) J. Surg Res. 121(1):120-129; Fan et al (2005) Circulation 111(14):1792-1799; Zhou et al (2007) Cardiovascular Research 75(3) 487-497; and Diwan et al (2007) J. Clinical Investigation 117(10):2825-2833, herein incorporated by reference in their entirety). Mice were anesthetized with sodium pentobarbital (90 mg/kg ip), intubated with PE 90 tubing and ventilated using a mouse miniventilator (Harvard Apparatus, Holliston, Mass.). All mice were continuously monitored by electrocardiography ([…] Sinus Rhythm Analyzer, Micro-Med Inc), and mice without evidence of ischemia and timely reperfusion were excluded from the studies. A lateral thoracotomy (1.5 cm incision between the second and third ribs was performed to provide exposure of the left anterior descending coronary artery (LAD). Vascular bundles in the vicinity were coagulated using a microcoagulator (Medical Industries Inc, St. Petersburg Fla.). An 8-0 nylon suture was placed around the LAD 2-3 mm from the tip of the left auricle and a piece of soft silicon tubing (0.64 mm ID, 1.19 mm OD) was placed over the artery. Coronary occlusion was achieved by tightening and tying the suture. Coronary occlusion was for 45 minutes, unless indicated otherwise. At the end of the occlusion, the suture was untied and left in place. Ischemia was confirmed by visual observation of cyanosis and by continuous ECG monitoring (QRS complex widening, T wave inversion and ST segment changes); reperfusion was confirmed by reversal of these effects. Results of one such experiment are presented in FIG. 1, panel A. Mice were euthanized either 4 or 24 hours after reperfusion and infarct size determination and imaging were performed by previously described methods (Ren et al. (2004) J. Surg Res. 121(1):120-129 and Guo et al (1998) Am J. Physiology 275 (4 Pt 2):[…]-1387, herein incorporated by reference in their entirety). Mice were anesthetized with pentobarbital sodium (35 mg/kg iv) and euthanized with an intravenous bolus of KCl. The heart was excised and perfused with Krebs-Henseleit solution through an aortic cannula (22 or 23-gauge needle) using a Langerdorff apparatus. To delineate infarcted from viable myocardium, the heart was then perfused with a 1% solution of 2,3,5-triphenyltetrazolium chloride (TTC) in phosphate buffer (pH 7.4, 37° C.) at a pressure of […] (approx. 3 ml over 3 min). […] Infarct size was determined by the method of Fishbein et al (1981) Am Heart J 101(5):593-600, herein incorporated by reference in its entirety. […] Infarct size was determined as described elsewhere herein. […]

TRPV1 = biological target: T1, TRPV1 (Mus musculus, UniProt Q704Y3); assay: Topical capsaicin before ischemia/reperfusion in wild-type vs TRPV1 knock-out mice; details: capsaicin topically administered to the abdomen prior to ischemia and reperfusion; FIG. 2E
T1 construct: data from wild-type mice topically treated with capsaicin administered to the abdomen prior to surgical induction of ischemia and reperfusion; from tissue; host or cells: Living wild-type mouse; abdominal skin nociceptors (C-fibers), in vivo
Source text: FIG. 2, panel E presents a graph of results obtained from wild-type (WT) and TRPV1 knock-out (TRPVKO) mice using topical capsaicin as the cardioprotective stimulus. Infarct size as a percent of risk region is presented on the y-axis. The first bar presents data from wild-type mice topically treated with capsaicin administered to the abdomen prior to surgical induction of ischemia and reperfusion (WT, Capsaicin, hatched bar). The second bar presents data from TRPV1 knockout mice topically treated with capsaicin administered to the abdomen prior to surgical induction of ischemia and reperfusion (TRPVKO, Capsaicin, dotted bar). The third bar presents data from TRPV1 knockout mice subjected to sham treatment prior to surgical induction of ischemia and reperfusion (TRPVKO No capsaicin, empty bar).
Mice were anesthetized with sodium pentobarbital (90 mg/kg ip), intubated with PE 90 tubing and ventilated using a mouse miniventilator (Harvard Apparatus, Holliston, Mass.). All mice were continuously monitored by electrocardiography (ECG) (DigiMed Sinus Rhythm Analyzer, Micro-Med Inc), and mice without evidence of ischemia and timely reperfusion were excluded from the studies. […]

[2] = test system: murine ischemia/reperfusion model of myocardial infarction; assay: Blockade of the cardioprotection by remote electrical stimulation in mouse ischemia/reperfusion model
Method: A previously described mouse model of ischemia and reperfusion (I/R) injury in vivo was used (Ren et al. (2004) J. Surg Res. 121(1):120-129; Fan et al (2005) Circulation 111(14):1792-1799; Zhou et al (2007) Cardiovascular Research 75(3) 487-497; and Diwan et al (2007) J. Clinical Investigation 117(10):2825-2833, herein incorporated by reference in their entirety). Mice were anesthetized with sodium pentobarbital (90 mg/kg ip), intubated with PE 90 tubing and ventilated using a mouse miniventilator (Harvard Apparatus, Holliston, Mass.). All mice were continuously monitored by electrocardiography (ECG) (DigiMed Sinus Rhythm Analyzer, Micro-Med Inc), and mice without evidence of ischemia and timely reperfusion were excluded from the studies.
A lateral thoracotomy (1.5 cm incision between the second and third ribs was performed to provide exposure of the left anterior descending coronary artery (LAD). Vascular bundles in the vicinity were coagulated using a microcoagulator (Medical Industries Inc, St. Petersburg Fla.). An 8-0 nylon suture was placed around the LAD 2-3 mm from the tip of the left auricle and a piece of soft silicon tubing (0.64 mm ID, 1.19 mm OD) was placed over the artery. Coronary occlusion was achieved by tightening and tying the suture. Coronary occlusion was for 45 minutes, unless indicated otherwise. At the end of the occlusion, the suture was untied and left in place. Ischemia was confirmed by visual observation of cyanosis and by continuous ECG monitoring (QRS complex widening, T wave inversion and ST segment changes); reperfusion was confirmed by reversal of these effects.
Mice were euthanized either 4 or 24 hours after reperfusion and infarct size determination and imaging were performed by previously described methods (Ren et al. (2004) J. Surg Res. 121(1):120-129 and Guo et al (1998) Am J. Physiology 275 (4 Pt 2):H1375-1387, herein incorporated by reference in their entirety). Mice were anesthetized with pentobarbital sodium (35 mg/kg iv) and euthanized with an intravenous bolus of KCl. The heart was excised and perfused with Krebs-Henseleit solution through an aortic cannula (22 or 23-gauge needle) using a Langerdorff apparatus. To delineate infarcted from viable myocardium, the heart was then perfused with a 1% solution of 2,3,5-triphenyltetrazolium chloride (TTC) in phosphate buffer (pH 7.4, 37° C.) at a pressure of […] (approx. 3 ml over 3 min). To delineate the occluded-reperfused coronary vascular bed, the coronary artery was then tied at the site of the previous occlusion and the aortic root was perfused with a 5% solution of phthalo blue dye in normal saline. […] Infarct size was determined by the method of Fishbein et al (1981) Am Heart J 101(5):593-600, herein incorporated by reference in its entirety. […]

T1 sequence (Q704Y3 whole entry, the tested form may be a part): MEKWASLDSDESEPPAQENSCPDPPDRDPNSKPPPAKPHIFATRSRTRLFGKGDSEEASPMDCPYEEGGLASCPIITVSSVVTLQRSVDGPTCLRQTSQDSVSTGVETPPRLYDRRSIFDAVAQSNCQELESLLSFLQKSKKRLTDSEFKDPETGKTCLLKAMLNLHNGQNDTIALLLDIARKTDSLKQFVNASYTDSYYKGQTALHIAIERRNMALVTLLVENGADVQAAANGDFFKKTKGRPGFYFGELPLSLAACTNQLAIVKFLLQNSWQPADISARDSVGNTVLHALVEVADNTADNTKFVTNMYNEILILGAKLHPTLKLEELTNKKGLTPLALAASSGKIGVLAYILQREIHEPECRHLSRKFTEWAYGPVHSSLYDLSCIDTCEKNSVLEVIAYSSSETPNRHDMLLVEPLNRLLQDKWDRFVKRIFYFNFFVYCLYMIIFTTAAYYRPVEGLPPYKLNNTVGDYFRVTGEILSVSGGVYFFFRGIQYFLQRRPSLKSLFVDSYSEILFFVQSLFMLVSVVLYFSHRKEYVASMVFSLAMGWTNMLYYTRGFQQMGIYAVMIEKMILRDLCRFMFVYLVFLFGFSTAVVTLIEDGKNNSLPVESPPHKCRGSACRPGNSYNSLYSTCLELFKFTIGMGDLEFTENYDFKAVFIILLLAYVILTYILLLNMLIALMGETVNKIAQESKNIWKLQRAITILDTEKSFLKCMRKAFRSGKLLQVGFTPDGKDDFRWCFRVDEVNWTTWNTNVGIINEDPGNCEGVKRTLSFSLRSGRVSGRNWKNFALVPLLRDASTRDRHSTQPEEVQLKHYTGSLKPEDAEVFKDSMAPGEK

SMILES: COc1cc(CNC(=O)CCCC/C=C/C(C)C)ccc1O [capsaicin, (6E)-N-[(4-Hydroxy-3-methoxyphenyl)methyl]-8-methyl-6-nonenamide]
- reduction of infarct size (infarct size as a percent of the risk region) ([1]; remote pre-conditioning, stimulus given 15 minutes prior to the ischemia, abdominal topical, vs sham, n=6, P<0.01): 85%
- infarct size as a percent of the risk region ([1]; remote pre-treatment prior to ischemia/reperfusion, vs sham, FIG. 1C): substantial reduction in infarct size
- infarct size as a percent of risk area ([1]; topical application during ischemia (conditioning) or after reperfusion (postCON), vs sham, p<0.01, FIG. 10): significantly reduces infarct size
- infarct size as a percent of risk region, WT vs TRPVKO (TRPV1): reduced myocardial infarct size as compared to TRPVKO mice

SMILES: COc1ccc2c(c[n+](C)c3c4cc5c(cc4ccc23)OCO5)c1OC [chelerythrine]
- inhibition of ischemia-related tissue damage (infarct size as a percentage of risk region) ([2]; chelerythrine plus ES vs vehicle plus ES, FIG. 3C): reduced inhibition of ischemia-related tissue damage

SMILES: CCN(CC)CC(=O)Nc1c(C)cccc1C [lidocaine]
- infarct size as a percent of risk region ([2]; 2% lidocaine prior to electrical stimulation (ES) and ischemia, vs vehicle ES, FIG. 2A): significantly higher percentage of risk region than infarction size in vehicle and ES treated mice
- cardioprotective effect of the remote electrical stimulation ([2]; 10 μl lidocaine (2%) s.c. pre-treatment, 45 min occlusion): no significant cardioprotection relative to controls

SMILES: CCCN(CCC)S(=O)(=O)c1ccc(C(=O)O)cc1 [probenecid]
- infarct size as a percent of risk region ([1]; topical probenecid application vs sham/control animals, p<0.07, FIG. 11): significantly reduced

SMILES: CC(C)NCC(O)COc1cccc2ccccc12 (stereo not drawn) [propanolol]
- infarct size as a percentage of risk region ([2]; propanolol plus ES vs vehicle plus ES, FIG. 3B): significantly higher than infarct size in control mice treated only with the vehicle and electrically stimulated
